Source: patent US20250154169A1, “COMPOUNDS AND METHODS FOR MODULATING SPLICING” (REMIX THERAPEUTICS INC., priority 2021, published 2025)
pIC50: −log10 of the molar value. Like-named read-outs stand apart in the source and are kept apart here.

Key:
Assay type in all cases: cell-based, human
[1] = system: HTT mRNA; assay: Splicing RT-qPCR assay, HTT canonical (CJ) and alternative (AJ) junction mRNA; conditions: Homo sapiens, A673 or K562 cells, 24 hours compound treatment; for pIC50: 24 h, read-out: HTT CJ (IC50, decrease in canonical junction mRNA); for AC50: read-out: HTT AJ (AC50, increase in alternative junction mRNA)
In short: (§1)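 Canonical (CJ) and alternative-exon (AJ) junction mRNAs quantified by one-step RT-qPCR in cell lysates, normalized to housekeeping PPIA for A673 and GAPDH or GUSB for K562. Cells were exposed 24 h at 37 °C to 11-point 3-fold compound series from 10 uM final, with DMSO at or below 0.25%.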

[2] = system: HTT mRNA; assay: Splicing RT-qPCR gene panel, HTT canonical junction (CJ) mRNA; conditions: Homo sapiens, Tables 4A/4B, read-out: HTT (IC50, decrease in CJ mRNA, gene panel)
In short: (§2)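 Read-out: RT-qPCR of the canonical exon-exon junction transcript, ΔCt vs housekeeping gene, normalized to DMSO, RQ = 2^(−ΔΔCt), converted to percentage response. Cells, A673 or K562, were dosed 24 h at 37 °C across 11 3-fold dilutions from 10 uM.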

[3] = system: MYB mRNA; assay: Splicing RT-qPCR assay, MYB canonical (CJ) and alternative (AJ) junction mRNA; conditions: Homo sapiens; for AC50: read-out: MYB AJ (AC50, increase in alternative junction mRNA)
In short: as §1

[4] = system: SMN2 mRNA; assay: Splicing RT-qPCR gene panel, SMN2 canonical junction (CJ) mRNA; conditions: Homo sapiens, Tables 4A/4B, read-out: SMN2 (IC50, decrease in CJ mRNA, gene panel)
In short: as §2

[5] = system: Target C mRNA; assay: Splicing RT-qPCR gene panel, Target C canonical junction (CJ) mRNA; conditions: Tables 4A/4B, read-out: Target C (IC50, decrease in CJ mRNA, gene panel)
In short: as §2

[6] = 24 h, A673 or K562 cells, 24 hours compound treatment, RT-qPCR
[7] = 24 h, A673 or K562 cells, 24 hours compound treatment, RT-qPCR, read-out: MYB CJ (IC50, decrease in canonical junction mRNA)
[8] = Tables 4A/4B, canonical junction qPCR panel, read-out: MYB (IC50, decrease in CJ mRNA, gene panel)

Structure (SMILES)	pIC50 [1]	AC50 [1] [nM]	pIC50 [2]	AC50 [3, 6] [nM]	pIC50 [3, 7]	pIC50 [3, 8]	pIC50 [4]	pIC50 ([5]; Homo sapiens)	pIC50 [5]
CCN1CCC(c2ccc(C(=O)Nc3cc(F)c4nc(C)cn4c3)c3oc(C)cc23)CC1 [Compound 257]	5.00 to 6.00	1000 to 10000	5.00 to 6.00	100 to 1000	6.00 to 7.00	6.00 to 7.00	> 7.00	< 5.00	
Cc1cn2cc(NC(=O)c3ccc(N4CCC(N(C)C)C4)c4cn(C)nc34)cc(F)c2n1 (stereo not drawn) [Compound 258]	5.00 to 6.00	100 to 1000	5.00 to 6.00	< 100	> 7.00	> 7.00	> 7.00	5.00 to 6.00	
Cc1cn2cc(NC(=O)c3ccc(N4CCC(NC(C)(C)C)CC4)c4cn(C)nc34)cc(F)c2n1 [Compound 259]	5.00 to 6.00	1000 to 10000	5.00 to 6.00	1000 to 10000	6.00 to 7.00	6.00 to 7.00	> 7.00	5.00 to 6.00	
Cc1cn2cc(NC(=O)c3ccc(N4C[C@H]5CC[C@@H](C4)N5)c4cn(C)nc34)cc(F)c2n1 [Compound 260]	6.00 to 7.00	100 to 1000	6.00 to 7.00	< 100	> 7.00	> 7.00	5.00 to 6.00	5.00 to 6.00	
Cc1cc2c(N3CCNCC3)ccc(C(=O)Nc3ccc4cn(C)nc4c3)c2o1 [Compound 261]	< 5.00	> 10000	< 5.00	> 10000	< 5.00	< 5.00	5.00 to 6.00	< 5.00	
Cc1cn2cc(NC(=O)c3ccc(N4CCNCC4)c4cc(C)oc34)c(C)cc2n1 [Compound 262]	5.00 to 6.00	1000 to 10000	5.00 to 6.00	100 to 1000	6.00 to 7.00	6.00 to 7.00	> 7.00	< 5.00	
Cc1cn2cc(NC(=O)c3ccc(N4CCNCC4)c4cc(C)oc34)ncc2n1 [Compound 263]	5.00 to 6.00	1000 to 10000	5.00 to 6.00	100 to 1000	6.00 to 7.00	6.00 to 7.00	> 7.00	5.00 to 6.00	
Cc1cn2nc(NC(=O)c3ccc(N4CCNCC4)c4cc(C)oc34)nc2c(C)n1 [Compound 264]	< 5.00	> 10000	< 5.00	> 10000	< 5.00	< 5.00	< 5.00	< 5.00	
Cc1cn2nc(NC(=O)c3ccc(N4CCNCC4)c4cc(C)oc34)cc2c(C)n1 [Compound 265]	< 5.00	> 10000	< 5.00	> 10000	< 5.00	< 5.00	5.00 to 6.00	< 5.00	
Cc1cn2cc(NC(=O)c3ccc(N4CCNCC4)c4cc(C)oc34)cc(Cl)c2n1 [Compound 266]	5.00 to 6.00	1000 to 10000	5.00 to 6.00	< 100	6.00 to 7.00	6.00 to 7.00	> 7.00	< 5.00	
Cc1cn2cc(NC(=O)c3ccc(N4CCNCC4)c4cc(C)oc34)cc(C)c2n1 [Compound 267]	< 5.00	1000 to 10000	< 5.00	100 to 1000	5.00 to 6.00	5.00 to 6.00	> 7.00	< 5.00	
Cc1cc2c(N3CCNCC3)ccc(C(=O)Nc3cn[nH]c3)c2o1 [Compound 268]	< 5.00	> 10000	< 5.00	> 10000	< 5.00	< 5.00	< 5.00	< 5.00	
Cc1cn2cc(NC(=O)c3ccc(N4CCNCC4)c4cn(C)nc34)cc(Cl)c2n1 [Compound 269]	6.00 to 7.00	100 to 1000	6.00 to 7.00	< 100	> 7.00	> 7.00	> 7.00		5.00 to 6.00
Cn1cc2c(N3CCNCC3)ccc(C(=O)Nc3cn[nH]c3)c2n1 [Compound 270]	< 5.00	> 10000	< 5.00	> 10000	< 5.00	< 5.00	< 5.00	< 5.00	
Cc1cn2cc(NC(=O)c3ccc(C4CC(C)(C)NC(C)(C)C4)c4cc(C)oc34)cc(F)c2n1 [Compound 271]	< 5.00	> 10000	< 5.00	1000 to 10000	5.00 to 6.00	5.00 to 6.00	6.00 to 7.00	< 5.00	
Cc1cn2cc(NC(=O)c3ccc(N4CCC(N5CCCC5)C4)c4cn(C)nc34)cc(F)c2n1 (stereo not drawn) [Compound 272]	6.00 to 7.00	100 to 1000	6.00 to 7.00	< 100	6.00 to 7.00	6.00 to 7.00	> 7.00	6.00 to 7.00	
Cc1cn2cc(NC(=O)c3ccc(N4CCNCC4)c4cn(C)nc34)nc2c(C)n1 [Compound 273]	< 5.00	> 10000	< 5.00	100 to 1000	6.00 to 7.00	6.00 to 7.00	> 7.00	< 5.00	
Cc1cn2cc(NC(=O)c3ccc(N4CC(C)(C)NC(C)(C)C4)c4cn(C)nc34)cc(F)c2n1 [Compound 274]	5.00 to 6.00	> 10000	5.00 to 6.00	100 to 1000	6.00 to 7.00	6.00 to 7.00	> 7.00	< 5.00	
Cc1cn2cc(NC(=O)c3ccc(N4CCNCC4)c4cn(C)nc34)cc(C(F)(F)F)c2n1 [Compound 275, 2-methyl-N-[2-methyl-8-(trifluoromethyl)imidazo[1,2-a]pyridin-6-yl]-4-(piperazin-1-yl) indazole-7-carboxamide]	5.00 to 6.00	1000 to 10000	5.00 to 6.00	< 100	6.00 to 7.00	6.00 to 7.00	> 7.00	< 5.00	
Cc1cn2cc(NC(=O)c3ccc(N4CCC(N(C)C)C4)c4cn(C)nc34)cc(Cl)c2n1 (stereo not drawn) [Compound 278]	5.00 to 6.00	1000 to 10000	5.00 to 6.00	< 100	6.00 to 7.00	6.00 to 7.00	> 7.00	5.00 to 6.00	
Cc1cn2cc(-c3ccc(C(=O)NC4CCNCC4)c4nn(C)cc34)cc(F)c2n1 [Compound 280]	5.00 to 6.00	1000 to 10000	5.00 to 6.00	1000 to 10000	< 5.00	< 5.00	5.00 to 6.00	< 5.00	
Cc1cn2nc(-c3ccc(C(=O)NC4CCNCC4)c4nn(C)cc34)cc(C)c2n1 [Compound 281]	5.00 to 6.00	1000 to 10000	5.00 to 6.00	1000 to 10000	5.00 to 6.00	5.00 to 6.00	6.00 to 7.00	5.00 to 6.00	
Cc1cn2nc(-c3ccc(C(=O)NC4CCNCC4)c4oc(C)cc34)cc(C)c2n1 [Compound 282]	5.00 to 6.00	1000 to 10000	5.00 to 6.00	> 10000	< 5.00	< 5.00	6.00 to 7.00	< 5.00	
Cc1cn2nc(-c3ccc(C(=O)NC4CCNCC4)c4oc(C)cc34)cc(F)c2n1 [Compound 283]	5.00 to 6.00	> 10000	5.00 to 6.00	> 10000	5.00 to 6.00	5.00 to 6.00	6.00 to 7.00	< 5.00	
Cc1cn2cc(NC(=O)c3ccc(N4CCNCC4)c4c[nH]nc34)cc(Cl)c2n1 [Compound 286]	< 5.00	> 10000	< 5.00	1000 to 10000	6.00 to 7.00	6.00 to 7.00	6.00 to 7.00	< 5.00	
CCn1cc2c(N3C[C@H]4CC[C@@H](C3)N4)ccc(C(=O)Nc3cc(F)c4nc(C)cn4c3)c2n1 [Compound 289, 4-[(1R,5S)-3,8-diazabicyclo[3.2.1]octan-3-yl]-2-ethyl-N-{8-fluoro-2-methylimidazo[1,2-a]pyridin-6-yl}indazole-7-carboxamide]	5.00 to 6.00	> 10000	5.00 to 6.00	100 to 1000	6.00 to 7.00	6.00 to 7.00	> 7.00	< 5.00	
Cc1cn2cc(NC(=O)c3ccc(N4CCNCC4)c4cn(C(C)C)nc34)cc(F)c2n1 [Compound 290, N-{8-fluoro-2-methylimidazo[1,2-a]pyridin-6-yl}-2-isopropyl-4-(piperazin-1-yl)indazole-7-carboxamide]	< 5.00	> 10000	< 5.00	100 to 1000	6.00 to 7.00	6.00 to 7.00	> 7.00	< 5.00	
